From patent publication US20240059700A1, “NOVEL DIACYLGLYCERIDE O-ACYLTRANSFERASE 2 INHIBITORS” (Merck Sharp & Dohme LLC, priority 2020, published 2024)

Target: human DGAT2 (hDGAT2) (Homo sapiens (Human), UniProt Q96PD7)
Experiment: DGAT2 Enzymatic Activity Assay
Type: biochemical
Details: membrane prep of Sf-9 insect cells expressing hDGAT2; 13C18-triolein product by LC/MS/MS
How it was run: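 Membranes from Sf-9 cells infected with untagged hDGAT2 baculovirus (8 ng/μL) incubated at rt in 100 mM Tris pH 7.0, 20 mM MgCl2, 5% ethanol with 25 μM diolein and 5 μM 13C oleoyl-CoA. 13C18-triolein product quantified by LC/MS/MS against 13C21-triolein internal standard; IC50 by 4-parameter fit.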

Sequence of human DGAT2 (hDGAT2) (Q96PD7 whole entry): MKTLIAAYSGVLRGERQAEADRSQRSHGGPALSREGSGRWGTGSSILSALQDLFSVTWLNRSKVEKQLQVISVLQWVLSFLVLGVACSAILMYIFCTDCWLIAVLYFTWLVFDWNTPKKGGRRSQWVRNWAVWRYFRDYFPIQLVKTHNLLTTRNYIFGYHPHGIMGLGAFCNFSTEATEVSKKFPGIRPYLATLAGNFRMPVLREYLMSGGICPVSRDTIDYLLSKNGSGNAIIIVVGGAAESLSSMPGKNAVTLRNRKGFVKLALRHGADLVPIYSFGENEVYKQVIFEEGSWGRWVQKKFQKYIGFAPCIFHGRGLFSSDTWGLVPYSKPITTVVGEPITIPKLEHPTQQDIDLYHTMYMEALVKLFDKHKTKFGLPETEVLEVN

IC50 [nM]	SMILES
13	CC(C)[C@H](NC(=O)c1cnc2c(-c3cncc(OC(F)F)c3)nn(C(C)C)c2c1)[C@H](C)O [Example 54, 3-(5-(difluoromethoxy)pyridin-3-yl)-N-((2S,3S)-2-hydroxy-4-methylpentan-3-yl)-1-isopropyl-1H-pyrazolo[4,3-b]pyridine-6-carboxamide]
18	CC1(NC(=O)c2cnc3c(-c4cccc(OC(F)F)c4)nn(C4CCOCC4)c3c2)CS(=O)(=O)C1 [Example 63, 3-(3-(difluoromethoxy)phenyl)-N-(3-methyl-1,1-dioxidothietan-3-yl)-1-(tetrahydro-2H-pyran-4-yl)-1H-pyrazolo[4,3-b]pyridine-6-carboxamide]
65	CC1(NC(=O)c2cnc3c(-c4cccc(OC(F)F)c4)nn(C4COC4)c3c2)CS(=O)(=O)C1 [Example 61, 3-[3-(difluoromethoxy)phenyl]-N-(3-methyl-1,1-dioxo-thietan-3-yl)-1-(oxetan-3-yl)pyrazolo[4,3-b]pyridine-6-carboxamide]
17	CC(C)n1nc(-c2cccc(OC(F)F)c2)c2ncc(C(=O)N[C@H]3CCCC[C@@H]3O)cc21 [Example 40, 3-[3-(difluoromethoxy)phenyl]-N-[(1S,2S)-2-hydroxycyclohexyl]-1-isopropyl-pyrazolo[4,3-b]pyridine-6-carboxamide]
89	Cn1nccc1-c1cn(-c2ccc(F)cc2)c2cc(C(=O)N[C@@]3(C)CCS(=O)(=O)C3)cnc12 [Example 13, (S)-1-(4-fluorophenyl)-N-(3-methyl-1,1-dioxidotetrahydrothiophen-3-yl)-3-(1-methyl-1H-pyrazol-5-yl)-1H-pyrrolo[3,2-b]pyridine-6-carboxamide]
22	CC(C)(O)Cn1nc(-c2cccc(OC(F)F)c2)c2ncc(C(=O)NC3(C)CS(=O)(=O)C3)cc21 [Example 111, 3-(3-(difluoromethoxy)phenyl)-1-(2-hydroxy-2-methylpropyl)-N-(3-methyl-1,1-dioxidothietan-3-yl)-1H-pyrazolo[4,3-b]pyridine-6-carboxamide]
153	Cn1nc(-c2cccc(OC(F)F)c2)c2ncc(C(=O)NC3(C)CS(=O)(=O)C3)cc21 [Example 26, 3-(3-(difluoromethoxy)phenyl)-1-methyl-N-(3-methyl-1,1-dioxidothietan-3-yl)-1H-pyrazolo[4,3-b]pyridine-6-carboxamide]
2.9	CC1(C)CC(n2nc(-c3cccc(OC(F)F)c3)c3ncc(C(=O)NC4(C)CS(=O)(=O)C4)cc32)C1 [Example 89, 3-(3-(difluoromethoxy)phenyl)-1-(3,3-dimethylcyclobutyl)-N-(3-methyl-1,1-dioxidothietan-3-yl)-1H-pyrazolo[4,3-b]pyridine-6-carboxamide]
17	CC(C)n1nc(-c2cccc(OC(F)F)c2)c2ncc(C(=O)NC3(CO)CC(F)(F)C3)cc21 [Example 51, N-(3,3-difluoro-1-(hydroxymethyl)cyclobutyl)-3-(3-(difluoromethoxy)phenyl)-1-isopropyl-1H-pyrazolo[4,3-b]pyridine-6-carboxamide]
1	CC(C)n1nc(-c2cccc(OC(F)F)c2)c2c(F)cc(C(=O)NC3(C)CS(=O)(=O)C3)cc21 [Example 33, 3-(3-(difluoromethoxy)phenyl)-4-fluoro-1-isopropyl-N-(3-methyl-1,1-dioxidothietan-3-yl)-1H-indazole-6-carboxamide]
59	CC1(NC(=O)c2cnc3c(-c4cccc(OC(F)F)c4)nn(CC4CCOCC4)c3c2)CS(=O)(=O)C1 [Example 69, 3-(3-(difluoromethoxy)phenyl)-N-(3-methyl-1,1-dioxidothietan-3-yl)-1-((tetrahydro-2H-pyran-4-yl)methyl)-1H-pyrazolo[4,3-b]pyridine-6-carboxamide]
72	CC(C)n1nc(-c2cccc(OC(F)F)c2)c2ncc(C(=O)N[C@@H]3CCC[C@H]3N3CCOCC3)cc21 [Example 41, 3-[3-(difluoromethoxy)phenyl]-1-isopropyl-N-[(1R,2R)-2-morpholinocyclopentyl]pyrazolo[4,3-b]pyridine-6-carboxamide]
285	Cc1ncc(OC(F)F)cc1-c1nn(C(C)C)c2cc(C(=O)NC3(C)CS(=O)(=O)C3)ncc12 [Example 35, 3-(5-(difluoromethoxy)-2-methylpyridin-3-yl)-1-isopropyl-N-(3-methyl-1,1-dioxidothietan-3-yl)-1H-pyrazolo[4,3-c]pyridine-6-carboxamide]
7	CC(C)n1nc(-c2cccc(OCC(F)F)c2)c2ncc(C(=O)NC3(C)CS(=O)(=O)C3)cc21 [Example 94, 3-[3-(2,2-difluoroethoxy)phenyl]-1-isopropyl-N-(3-methyl-1,1-dioxo-thietan-3-yl)pyrazolo[4,3-b]pyridine-6-carboxamide]
78	CC(C)n1nc(-c2cncc(OC(F)F)c2)c2ncc(C(=O)N[C@H]3CCC[C@H]3O)cc21 [Example 105, 3-(5-(difluoromethoxy)pyridin-3-yl)-N-((1S,2R)-2-hydroxycyclopentyl)-1-isopropyl-1H-pyrazolo[4,3-b]pyridine-6-carboxamide]
143	CC(C)n1nc(-c2cc(OC(F)F)ncc2F)c2nnc(C(=O)NC3(C)CCS(=O)(=O)CC3)cc21 [Example 85, 3-(2-(difluoromethoxy)-5-fluoropyridin-4-yl)-1-isopropyl-N-(4-methyl-1,1-dioxidotetrahydro-2H-thiopyran-4-yl)-1H-pyrazolo[4,3-c]pyridazine-6-carboxamide]
142	Cn1nccc1-c1nn(-c2ccc(F)cc2)c2cc(C(=O)N[C@@]3(C)CCS(=O)(=O)C3)cnc12 [Example 2, (S)-1-(4-fluorophenyl)-N-(3-methyl-1,1-dioxidotetrahydrothiophen-3-yl)-3-(1-methyl-1H-pyrazol-5-yl)-1H-pyrazolo[4,3-b]pyridine-6-carboxamide]
638	CC(C)n1nc(-c2cccc(OC(F)F)c2)c2ncc(C(=O)NC3(C(C)(C)O)CCOCC3)cc21 [Example 72, 3-(3-(difluoromethoxy)phenyl)-N-(4-(2-hydroxypropan-2-yl)tetrahydro-2H-pyran-4-yl)-1-isopropyl-1H-pyrazolo[4,3-b]pyridine-6-carboxamide]
7100	CC(C)n1nc(-c2cccc(S(C)(=O)=O)c2)c2ncc(C(=O)NC3(C)CS(=O)(=O)C3)cc21 [Example 102, 1-isopropyl-N-(3-methyl-1,1-dioxo-thietan-3-yl)-3-(3-methylsulfonylphenyl)pyrazolo[4,3-b]pyridine-6-carboxamide]
7.7	CC(C)n1nc(-c2cc(OCC(F)(F)F)ncc2F)c2ncc(C(=O)NC3(C)CS(=O)(=O)C3)cc21 [Example 122, 3-(5-fluoro-2-(2,2,2-trifluoroethoxy)pyridin-4-yl)-1-isopropyl-N-(3-methyl-1,1-dioxidothietan-3-yl)-1H-pyrazolo[4,3-b]pyridine-6-carboxamide]
109	CC(C)n1nc(-c2cccc(C#N)c2)c2ncc(C(=O)NC3(C)CS(=O)(=O)C3)cc21 [Example 108, 3-(3-cyanophenyl)-1-isopropyl-N-(3-methyl-1,1-dioxidothietan-3-yl)-1H-pyrazolo[4,3-b]pyridine-6-carboxamide]
6530	N[C@@H]1CCC[C@H]1NC(=O)c1cnc2c(-c3cccc(OC(F)F)c3)cn(-c3ncc(F)cn3)c2c1 [Example 21, N-((1R,2R)-2-aminocyclopentyl)-3-(3-(difluoromethoxy)phenyl)-1-(5-fluoropyrimidin-2-yl)-1H-pyrrolo[3,2-b]pyridine-6-carboxamide]
